Results on five compounds are retold here after patent US12495798B2, “Nicotinamide compound and herbicidal composition comprising compound” (KOREA RESEARCH INSTITUTE OF CHEMICAL TECHNOLOGY, priority 2019, dated 2025).

Holding throughout (type): in vivo
Series [1] relates to barnyard grass. Briefly: Herbicidal activity test against upland field weeds (foliar treatment test). Details: key to Foliar treatment herbicidal activity, barnyard grass: 0 (no control); 100 (complete control). To be noted: 50 g ai/ha, scale 0-100; for pest or weed control at 50 g/ha: Echinochloa crus-galli. The gist of the method: (§1)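 Greenhouse-grown plants (30±5 °C, 14/10 h light/dark) foliar hand-sprayed with compound in 50% acetone, 0.1% Tween-20 at 50 or 75 g a.i./ha. Control visually scored 0 (none) to 100 (complete) versus untreated after 14 days, or 21 days if needed.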

Series [2] deals with quack grass. The series is described as above. Details: key to Foliar treatment herbicidal activity, quack grass: 0 (no control); 100 (complete control). The following applies: 50 g ai/ha, scale 0-100. Put shortly: as §1
The test system of series [3] is fall panicum. The series is described as above. The following applies: Panicum dichotomiflorum, 50 g ai/ha, scale 0-100. The gist of the method:
as §1

In series [4] the test system is bindweed. The description is as above. Details: key to Foliar treatment herbicidal activity, Bindweed: 0 (no control); 100 (complete control). The following applies: 50 g ai/ha, scale 0-100. The gist of the method: as §1
Series [5] relates to indian jointvetch. In words: Herbicidal activity test against upland field weeds (soil treatment test). Details: key to Soil treatment herbicidal activity, Indian jointvetch: 0 (no control); 100 (complete control). The following applies: 50 g ai/ha, scale 0 (no control) to 100 (complete control). Put shortly: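 Pre-emergence soil surface spray, day after sowing, into sandy loam pots with fertilizer; compounds at 50 or 75 g a.i./ha in 50% acetone, 0.1% Tween-20. Greenhouse at 30±5 °C, 14/10 h light/dark; visual control rated 0–100 against untreated after 14 days (21 if needed).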

Series [6] relates to corn. Briefly: Phytotoxicity test for upland field crops (foliar treatment test). Details: key: 0 (no harm); 9 (complete withered). The gist of the method: (§2)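 Phytotoxicity was rated on a 0 (no harm) to 9 (complete withered) scale relative to untreated plants, 7 and 14 days after spraying. Crops had been grown in fertilized horticultural soil under greenhouse conditions before foliar application at 19˜300 g a.i./ha.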

Series [7] deals with cotton. The series is described as above. Details: key: 0 (no harm); 9 (complete withered). Put shortly: as §2
Series [8] concerns rice. The series is described as above. Details: key: 0 (no harm); 9 (complete withered). Put shortly: as §2
The subject of series [9] is soybean. The series is described as above. The arrangement: key: 0 (no harm); 9 (complete withered). Put shortly:
as §2

The subject of series [10] is wheat. The description is as above. The arrangement: key: 0 (no harm); 9 (complete withered). Put shortly: as §2
Where [11] appears, read: 50 g ai/ha, Corn (7 days after treatment).
Setting [12] is: 50 g ai/ha, Corn (14 days after treatment).
[13] abbreviates: 100 g ai/ha, Corn (7 days after treatment).
Setting [14] is: 100 g ai/ha, Corn (14 days after treatment).
Setting [15] is: 50 g ai/ha, Cotton (7 days after treatment).
Setting [16] is: 50 g ai/ha, Cotton (14 days after treatment).
Where [17] appears, read: 100 g ai/ha, Cotton (7 days after treatment).
The mark [18] stands for this setting: 100 g ai/ha, Cotton (14 days after treatment).
Where [19] appears, read: 50 g ai/ha, Rice (7 days after treatment).
Setting [20] is: 50 g ai/ha, Rice (14 days after treatment).
[21] abbreviates: 100 g ai/ha, Rice (7 days after treatment).
Where [22] appears, read: 100 g ai/ha, Rice (14 days after treatment).
Setting [23] is: 50 g ai/ha, Soybean (7 days after treatment).
[24] abbreviates: 50 g ai/ha, Soybean (14 days after treatment).
Where [25] appears, read: 100 g ai/ha, Soybean (7 days after treatment).
The mark [26] stands for this setting: 100 g ai/ha, Soybean (14 days after treatment).
Setting [27] is: 50 g ai/ha, Wheat (7 days after treatment).
The mark [28] stands for this setting: 50 g ai/ha, Wheat (14 days after treatment).
[29] abbreviates: 100 g ai/ha, Wheat (7 days after treatment).
Where [30] appears, read: 100 g ai/ha, Wheat (14 days after treatment).

As a reminder, the pest or weed control is the degree to which the test organism was suppressed or injured, in per cent.

Take `Cn1nnc(COc2nc(C(F)(F)F)ccc2C(=O)Nc2nnnn2C)n1` [Compound No. 2-1, N-(1-methyl-1H-tetrazol-5-yl)-2-((2-methyl-2H-tetrazol-5-yl)methoxy)-6-(trifluoromethyl)nicotinamide]: the figures for the pest or weed control at 50 g/ha in series [1], in [3] and in series [4] were 98%, 70% and 60%, respectively. Further, in [2], the “Foliar treatment herbicidal activity, quack grass” value was 0. The “Soil treatment herbicidal activity, Indian jointvetch” value (“Soil treatment herbicidal activity” below) in series [5] is given as 0. Moreover, the “Foliar treatment phytotoxicity, Corn” value in series [6] (setting [11]) was 2; in [6] (setting [12]), 1; in series [6] (setting [13]) it was 2; in series [6] (setting [14]), 2. Also, the “Foliar treatment phytotoxicity, Cotton” value in series [7] (setting [15]) amounted to 6; in series [7] (setting [16]), 8; in [7] (setting [17]) it was 6; in series [7] (setting [18]) it was 9. Besides, the “Foliar treatment phytotoxicity, Rice” value in series [8] (setting [19]) worked out at 4; in series [8] (setting [20]), 3; in series [8] (setting [21]) it was 5; in series [8] (setting [22]) it was 4. In addition, the “Foliar treatment phytotoxicity, Soybean” value in [9] (setting [23]) turned out to be 5; in series [9] (setting [24]), 6; in series [9] (setting [25]) it was 6; in [9] (setting [26]), 6. Also, the “Foliar treatment phytotoxicity, Wheat” value in series [10] (setting [27]), in [10] (setting [28]), in [10] (setting [29]) and in series [10] (setting [30]) was 0 throughout.
For the compound `CON(Cc1nnn(C)n1)c1nc(C(F)(F)F)ccc1C(=O)Nc1nnnn1C` [Compound No. 2-30, 2-(methoxy((2-methyl-2H-tetrazol-5-yl)methyl)amino)-N-(1-methyl-1H-tetrazol-5-yl)-6-(trifluoromethyl)nicotinamide], the figures for the pest or weed control at 50 g/ha in [1], in series [3] and in series [4] were 95%, 60% and 60%, respectively. The “Foliar treatment herbicidal activity, quack grass” value in series [2] is 0. Further, the “Soil treatment herbicidal activity” value in [5] was determined as 100. Besides, the “Foliar treatment phytotoxicity, Corn” value in series [6] (setting [11]) is given as 0; in series [6] (setting [12]), 0; in [6] (setting [13]) it was 1; in series [6] (setting [14]), 1. In addition, the “Foliar treatment phytotoxicity, Cotton” value in series [7] (setting [15]) was 0; in series [7] (setting [16]), 0; in [7] (setting [17]), 3; in [7] (setting [18]) it was 8. The “Foliar treatment phytotoxicity, Rice” value came out at 3 in [8] (setting [19]), 5 in series [8] (setting [20]), 5 in [8] (setting [21]) and 7 in series [8] (setting [22]). Also, the “Foliar treatment phytotoxicity, Soybean” value in series [9] (setting [23]) came to 0; in series [9] (setting [24]), 0; in [9] (setting [25]), 6; in series [9] (setting [26]) it was 6. The “Foliar treatment phytotoxicity, Wheat” value in series [10] (setting [27]) was 2; in [10] (setting [28]), 1; in series [10] (setting [29]), 3; in [10] (setting [30]), 3.
Turning to `Cn1nnc(COCc2nc(C(F)(F)F)ccc2C(=O)Nc2nnnn2C)n1` [Compound No. 2-59, N-(1-methyl-1H-tetrazol-5-yl)-2-(((2-methyl-2H-tetrazol-5-yl)methoxy)methyl)-6-(trifluoromethyl)nicotinamide], the “Foliar treatment herbicidal activity, barnyard grass” value in series [1] worked out at 100. Further, the “Foliar treatment herbicidal activity, quack grass” value in [2] stood at 0. Further, the pest or weed control at 50 g/ha in series [3] amounted to 95%; in [4] it was 90%. The “Soil treatment herbicidal activity” value in series [5] was 100. For the same compound, the “Foliar treatment phytotoxicity, Corn” value in series [6] (setting [11]) stood at 0; in series [6] (setting [12]) it was 2; in series [6] (setting [13]), 3; in series [6] (setting [14]), 4. Further, the “Foliar treatment phytotoxicity, Cotton” value in series [7] (setting [15]) came out at 3; in series [7] (setting [16]), 8; in [7] (setting [17]) it was 3; in series [7] (setting [18]), 9. Further, the “Foliar treatment phytotoxicity, Rice” value was 3 in series [8] (setting [19]), 4 in [8] (setting [20]), 3 in [8] (setting [21]) and 6 in series [8] (setting [22]). Also, the “Foliar treatment phytotoxicity, Soybean” value in series [9] (setting [23]) worked out at 5; in [9] (setting [24]), 7; in series [9] (setting [25]), 5; in series [9] (setting [26]) it was 7. The “Foliar treatment phytotoxicity, Wheat” value in [10] (setting [27]), in [10] (setting [28]), in series [10] (setting [29]) and in series [10] (setting [30]) was 0 each time.
Consider `Cn1nnc(COCc2nc(C(F)(F)F)ccc2C(=O)N(C(=O)c2ccccc2)c2nnnn2C)n1` [Compound No. 2-68, N-benzoyl-N-(1-methyl-1H-tetrazol-5-yl)-2-(((2-methyl-2H-tetrazol-5-yl)methoxy)methyl)-6-(trifluoromethyl)nicotinamide], for which, in series [1], the “Foliar treatment herbicidal activity, barnyard grass” value came to 100. Moreover, the “Foliar treatment herbicidal activity, quack grass” value in series [2] is on record as 0. In [3], this compound returned a pest or weed control at 50 g/ha of 98%. In addition, in [4], the “Foliar treatment herbicidal activity, Bindweed” value was found to be 100. For the same compound, the “Soil treatment herbicidal activity” value in series [5] is recorded as 100. The “Foliar treatment phytotoxicity, Corn” value is given as 4 in [6] (setting [11]), 4 in series [6] (setting [12]), 6 in series [6] (setting [13]) and 6 in [6] (setting [14]). For the same compound, the “Foliar treatment phytotoxicity, Cotton” value in [7] (setting [15]) came to 4; in [7] (setting [16]), 9; in series [7] (setting [17]), 5; in series [7] (setting [18]) it was 9. Also, the “Foliar treatment phytotoxicity, Rice” value amounted to 6 in [8] (setting [19]), 5 in series [8] (setting [20]), 6 in series [8] (setting [21]) and 8 in series [8] (setting [22]). Moreover, the “Foliar treatment phytotoxicity, Soybean” value in series [9] (setting [23]) is on record as 5; in series [9] (setting [24]) it was 5; in series [9] (setting [25]), 6; in series [9] (setting [26]), 7. For the same compound, the “Foliar treatment phytotoxicity, Wheat” value in series [10] (setting [27]) is reported as 0; in series [10] (setting [28]) it was 0; in series [10] (setting [29]), 1; in [10] (setting [30]) it was 0.
For the compound `Cn1nnc(COCc2nc(C(F)(F)F)ccc2C(=O)N(c2nnnn2C)S(C)(=O)=O)n1` [Compound No. 2-69, N-(1-methyl-1H-tetrazol-5-yl)-2-(((2-methyl-2H-tetrazol-5-yl)methoxy)methyl)-N-(methylsulfonyl)-6-(trifluoromethyl)nicotinamide], the pest or weed control at 50 g/ha in [1] came out at 70%; in series [3], 60%; in [4], 40%. In addition, the “Foliar treatment herbicidal activity, quack grass” value in series [2] came to 0. Also, the “Soil treatment herbicidal activity” value in series [5] was determined as 100. Besides, the “Foliar treatment phytotoxicity, Corn” value is given as 4 in [6] (setting [11]) and 3 in series [6] (setting [12]). Besides, the “Foliar treatment phytotoxicity, Cotton” value is reported as 4 in series [7] (setting [15]) and 9 in series [7] (setting [16]). Also, the “Foliar treatment phytotoxicity, Rice” value in series [8] (setting [19]) was 6; in [8] (setting [20]) it was 7. For the same compound, the “Foliar treatment phytotoxicity, Soybean” value in series [9] (setting [23]) and in [9] (setting [24]) was 6 each time. The “Foliar treatment phytotoxicity, Wheat” value in series [10] (setting [27]) and in [10] (setting [28]) was 0 throughout.
